Source: US5773573A, “HIV peptides” (priority 1994, dated 1998)
Where two headings read alike, the source gives them in different places. Residues, ends and D or L forms follow the SMILES beside them.

Tests used:
[1] = system: HIV p24 antigen; experiment: p24Ag Assay on blood samples of HIV infected patient given HEP1; format: in vivo; settings: patient three
Protocol: (§1) The objective of this study was to determine in an HIV infected patient if the induction of immunological tolerance to HEP1 could reduce immune activation and HIV infection. The design of the first clinical experiment was to orally administer HEP1 to the patient in daily 10 mg doses (the lower end of the preferred dose range). This was then followed approximately three months later with a subcutaneous administration of HEP1 at a higher dose of 140 mg. To assess the therapeutic benefit of HEP1, the following disease progression markers were measured by taking blood samples before, during and after each trial and determining: HIV levels by a p24 antigen assay, HIV infectivity by a cellular TCID assay and immune activation by quantitating levels of various lymphocytes.
p24Ag is a marker of HIV infection as well as a predictor of HIV disease progression. The p24Ag assay measures p24 antigen from the core of HIV and is an immunoassay using murine monoclonal antibody coated onto microwell strips. The assay detects HIV in plasma, serum or tissue culture medium. If present, the antigen binds to the antibody-coated microwells. The bound antigen is recognised by biotinylated antibodies to HIV which react with conjugated strepavidin-horseradish peroxidase. Colour develops from the reaction of the peroxidase with hydrogen peroxidase in the presence of tetramethylbenzidine (TMB) substrate. Specimens which are HIV p24Ag positive can be quantitated by setting up a standard curve using serial dilutions of the Antigen Reagent. The assay is not accurate below 30 picograms per ml.
(§2) The following markers of HIV disease progression were assayed: p24Ag (the concentration of HIV p24 protein in picogram/ml in the blood), TCID (the infectivity of the HIV in the cells of blood sample measured by an in vitro cell culture assay in which a serial dilution of the sample was mixed with activated uninfected PBMC and the level of HIV infection determined by p24Ag assay), total white count (immune activation measured by the number of white cells per mm^3), CD4 (the number of CD4 positive cells per mm^3), CD8 (the number of CD8 positive cells per mm^3), NK (the number of Natural Killer cells per mm^3), Lymphocytes (the number of cells per mm^3), Monocytes (the number of cells per mm^3), and Granulocytes (the number of cells per mm^3). Normalised data was calculated by dividing each data point by the value of its data series on day 1 of the trail and multiplying by 100.

[2] = patient three
Protocol: Oral administration of HEP1 solution containing 10 mg HEP1 was started on day 2 of the trial and continued until day 22. Further Blood samples were taken for analysis on day 7, day 14, day 21 and day 28 of the trial (7 days after the last dose of HEP1).

[3] = system: HIV; experiment: Cellular TCID Assay on PBMC of HIV infected patient given HEP1; format: in vivo; settings: patient three; for TCID, normalised data (day 1 = 100): oral HEP1 10 mg daily day 2-22
Protocol: as §1
Cellular TCID is a technique that measures the relative amount of viral load within cells. Within four hours of a sample being taken from the HIV infected patient, 10^6 viable PBMC from the sample were obtained by centrifugation of the anticoagulated blood over Ficoll-Hypaque lymphocyte separation medium. A serial dilution of the patients cells was set up in a 24 well plate in decreasing amounts (1:1, 1:4, 1:16, 1:64 and 1:256 and a negative control using 0.9 ml special media (RPMI-1640) supplemented with 15% fetal calf serum and 10% interleukin 2. Infected cells were then cocultivated with 10^6 PBMC derived from an uninfected human donor that had been stimulated for 24-48 hours with phytohaemagglutin (PHA) to activate the cells to make them susceptible to infection by HIV. The cocultures were subsequently monitored for the presence of p24 antigen in the supernatant fluid twice weekly for up to 14 days, during this period the plates were spun on days 4,7,11 and 14 and then a 50% medium change was performed. […]
as §2

[4] = oral HEP1 10 mg daily day 2-22, day 1, before first dose
[5] = oral HEP1 10 mg daily day 2-22, day 7, during treatment
[6] = oral HEP1 10 mg daily day 2-22, day 28, after treatment
[7] = oral administration of HEP1 (FIG. 2)
[8] = orally administered HEP1 10 mg daily
[9] = single subcutaneous HEP1 injection in the abdominal wall

## CC(C)[C@H](NC(=O)[C@@H](NC(=O)[C@H](CCC(=O)O)NC(=O)[C@H](CCCNC(=N)N)NC(=O)[C@H](CCCNC(=N)N)NC(=O)[C@H](CCCCN)NC(=O)[C@H](CCCCN)NC(=O)[C@H](CCC(=O)O)NC(=O)[C@@H](N)[C@@H](C)O)[C@@H](C)O)C(=O)N[C@@H](CCC(=O)O)C(=O)N[C@@H](CCCNC(=N)N)C(=O)N[C@@H](CCC(=O)O)C(=O)N[C@@H](CCCCN)C(=O)N[C@@H](CCC(=O)O)C(=O)O [HEP1, NH2 ThrGluLysLysArgArgGluThrValGluArgGluLysGluCOOH] (H-TEKKRRETVEREKE-OH)
[1]; [4]
  p24Ag: 71 picogram/ml
  p24Ag, normalised data (day 1 = 100): 100
[1]; [5]
  p24Ag: 44 picogram/ml
  p24Ag, normalised data (day 1 = 100): 62
[1]; [6]
  p24Ag: 38 picogram/ml
  p24Ag, normalised data (day 1 = 100): 54
[1]; [7]
  HIV virus particles as measured by p24Ag levels, course: decline
[1]; [8]
  persistence of the effect on p24Ag and TCID after treatment: 7 days
  reduction of viral load as measured by p24Ag: 46%
[1]; single subcutaneous HEP1 dose on day 1, day-91, end of oral study
  p24Ag: 38 picogram/ml
[2]; oral HEP1 10 mg daily day 2-22
  adverse reactions: no adverse reactions
[2]; [9]
  adverse reactions: no other adverse reactions
  duration of stinging sensation after injection: approximately 15 minutes
[3]; day 1, before first dose
  TCID, normalised data (day 1 = 100): 100
[3]; day 28, after treatment
  TCID, normalised data (day 1 = 100): 6
[3]; [7]
  HIV infectivity as measured by a TCID assay, course: decline
[3]; [8]
  reduction of the infectivity of HIV as measured by TCID: 16 X
